Measured values reported in patent US12534466B2, “Crystalline forms of pyrimidino diazepine derivative” (CYCLACEL LIMITED, priority 2019, dated 2026).
Where a name gives a salt, the structure may show the parent alone. Read-outs that look alike come from different tables or passages of the source.

Experiments:
[1] = target: polo-like kinase 1 (PLK1) (Homo sapiens, UniProt P53350); details: cited from earlier work
[2] = Gravimetric vapour sorption (GVS/DVS) hygroscopicity; assay type: physicochemical; details: for Hygroscopicity classification: weight increase from 40-80% RH (25° C.), classes of Table 9, monohydrate
Procedure: Sorption isotherms were obtained using a Hiden Isochema moisture sorption analyser (model IGAsorp), controlled by IGAsorp Systems Software V6.50.48. The sample was maintained at a constant temperature (25° C.) by the instrument controls. The humidity was controlled by mixing streams of dry and wet nitrogen, with a total flow of 250 ml·min^−1. The instrument was verified for relative humidity content by measuring three calibrated Rotronic salt solutions (10-50-88%). The weight change of the sample was monitored as a function of humidity by a microbalance (accuracy+/−0.005 mg). A defined amount of sample was placed in a tared mesh stainless steel basket under ambient conditions. A full experimental cycle typically consisted of three scans (sorption, desorption and sorption) at a constant temperature (25° C.) and 10% RH intervals over a 0-90% range (60 minutes for each humidity level).

Chain of polo-like kinase 1 (PLK1) (P53350 whole entry): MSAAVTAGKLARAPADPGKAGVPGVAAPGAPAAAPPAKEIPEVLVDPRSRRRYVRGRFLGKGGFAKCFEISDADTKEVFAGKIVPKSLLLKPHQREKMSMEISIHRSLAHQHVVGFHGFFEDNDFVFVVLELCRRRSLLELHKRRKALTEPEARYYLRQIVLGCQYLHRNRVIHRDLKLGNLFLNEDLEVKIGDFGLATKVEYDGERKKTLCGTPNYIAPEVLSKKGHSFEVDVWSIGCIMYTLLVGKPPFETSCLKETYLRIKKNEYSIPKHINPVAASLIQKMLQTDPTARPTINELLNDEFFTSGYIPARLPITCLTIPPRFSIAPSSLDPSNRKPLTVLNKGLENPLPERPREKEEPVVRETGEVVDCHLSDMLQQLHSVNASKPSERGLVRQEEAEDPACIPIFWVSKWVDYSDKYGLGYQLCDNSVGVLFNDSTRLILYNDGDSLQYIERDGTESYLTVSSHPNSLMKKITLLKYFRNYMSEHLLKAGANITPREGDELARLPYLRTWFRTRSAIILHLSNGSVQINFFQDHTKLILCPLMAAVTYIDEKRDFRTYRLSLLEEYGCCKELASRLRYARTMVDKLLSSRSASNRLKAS

| Compound | Inhibition of PLK1 (in words) [1] | Inhibition of PLK1 (in words) ([1]; listed as compound (I)) | Hygroscopicity (in words) [2] | Stability of the crystalline form (in words) [2] | Weight change (%) from 40 to 80% RH @25° C. (sorption cycle by GVS) ([2]; 40-80% RH, 25° C., sorption cycle) | Hygroscopicity classification ([2]; listed as monohydrochloride monohydrate salt) | Hygroscopicity classification [2] |
| --- | --- | --- | --- | --- | --- | --- | --- |
| COc1cc(C(=O)N[C@H]2CC[C@H](N3CCN(C)CC3)CC2)ccc1Nc1ncc2c(n1)N(C1CCCC1)CC1(CC1)C(=O)N2C [Compound (I), 4-(9′-cyclopentyl-5″-methyl-6′-oxo-5′,6′,8′,9′-tetrahydrospiro[cyclopropane-1,7′-pyrimido[4,5-b][1,4]diazepine]-2′-ylamino)-N((trans)-4-(4-methylpiperazin-1-yl)cyclohexyl)-3-methoxybenzamide] | potent inhibitory activity | potent inhibitor |  |  |  |  |  |
| COc1cc(C(=O)N[C@H]2CC[C@H](N3CCN(C)CC3)CC2)ccc1Nc1ncc2c(n1)N(C1CCCC1)CC1(CC1)C(=O)N2C [Monohydrochloride monohydrate] |  |  | relatively low hygroscopicity | stable crystalline form | +0.9% | slightly hygroscopic | Slightly hygroscopic (≥0.2% and <2%) |
